Read-outs that look alike come from different tables or passages of the source.

For experiment [1], the system named is Arabidopsis thaliana Columbia (Col0) seedlings. Description: Lateral root initiation (lateral roots + lateral root primordia, number and density). It is filed as in vivo.
Experiment [2] concerns Nicotiana benthamiana leaves. Put plainly: Leaf dehydration assay (weight loss of pre-treated detached leaves in dry air flow). It is filed as in vivo. As to conditions: pre-treatment: ABA 10 and 100 μM, analogues 10 μM; 6 h dry air flow.
Experiment [3] deals with Arabidopsis thaliana seedlings. As to conditions: in vivo.
The test system of experiment [4] is Arabidopsis thaliana seeds. Put plainly: Arabidopsis thaliana seed germination assay. The class given is in vivo.
Experiment [5] deals with etiolated Arabidopsis thaliana seedlings.
The next experiment concerns tobacco epidermal strips. Put plainly: Stomatal closure assay on epidermal strips. It is filed as cell-based, Nicotiana tabacum.
In experiment [6] the test system is Arabidopsis thaliana Columbia (Col0) seedlings. Put plainly: Primary root elongation of etiolated seedlings on compound medium. It is filed as in vivo.
[7] abbreviates: 13 d old etiolated seedlings, 10 μM.

Take `CCOP(=O)(NCc1ccccn1)c1ccc(Br)c2ccccc12` (stereo not drawn) [Analogue E1, Ethyl N-(pyridin-2-ylmethyl)-P-(4-bromonapht-1-yl)phosphonamidate]: in experiment [1] (in vivo), the LR entry was “++”, the “effect on LR+ LRP density (per cm primary root)” value (shortened to “effect … (per cm primary root)”) is “strong density reduction (even stronger than ABA)” and the “effect on number of LR+ LRP (lateral root initiation)” value (from here on “effect on number of LR+ LRP”) was “strong inhibitors”. Moreover, in experiment [2], the “effect on leaf weight loss / transpiration” value is recorded as “reduction of transpiration”. For the same compound, the Shoot in experiment [3] was 0. Besides, the Seed germination in experiment [4] (in vivo) turned out to be 0. In experiment [5] (in vivo), the AR result is “−”. In the experiment on tobacco epidermal strips, the Stomata entry is reported as “−”; the “effect on stomatal aperture” value is “did not cause closure of the stomata and even induced the opening”. In addition, in experiment [6] (in vivo), the PR result is “+” and the “effect on primary root growth” value is reported as “modest inhibitors of primary root elongation”.
Consider `O=P(O)(NCc1ccccn1)c1ccc(Br)c2ccccc12` [Analogue E10, Hydrogen N-(pyridin-2-ylmethyl)-P-(4-bromonapht-1-yl)phosphonamidate], for which, in experiment [1] (setting [7]), the “effect … (per cm primary root)” value is given as “reduced the numbers of LR+ LRP similarly to ABA” and the “effect on number of LR+ LRP” value is on record as “modest to weak inhibitors of lateral root formation”. In experiment [1] (lateral root, 10 μM, compared with control not-treated seedlings), the LR result is listed as “+”. Besides, the “effect on leaf weight loss / transpiration” value in experiment [2] is given as “reduction of transpiration”. In addition, the Shoot in experiment [3] was found to be 0. The Seed germination in experiment [4] (10 μM, compared with control not-treated seeds) is listed as 0. For the same compound, the AR entry in experiment [5] (adventitious root, 10 μM, compared with control not-treated seedlings) is listed as “−”. Moreover, the “effect on stomatal aperture” value in the experiment on tobacco epidermal strips (10 μM) is listed as “intermediate stomatal closure”. In the experiment with tobacco epidermal strips (10 μM, compared with control not-treated epidermal strips), the Stomata entry is “+”. Further, the “effect on primary root growth” value in experiment [6] (10 μM) was “modest inhibitors of primary root elongation”. Further, the PR result in experiment [6] (primary root, 10 μM, compared with control not-treated seedlings) is recorded as “+”.
Take `CCOP(=O)(NCc1ccccn1)c1cccc2ccccc12` (stereo not drawn) [Analogue E9, Ethyl N-(pyridin-2-ylmethyl)-P-(napht-1-yl)phosphonamidate]: in experiment [1] (in vivo), the LR entry is reported as “+”, the “effect … (per cm primary root)” value is on record as “reduced the numbers of LR+ LRP similarly to ABA” and the “effect on number of LR+ LRP” value is “modest to weak inhibitors of lateral root formation”. For the same compound, the “effect on leaf weight loss / transpiration” value in experiment [2] is on record as “reduction of transpiration”. Also, in experiment [3], the Shoot amounted to 0. This compound had a Seed germination in experiment [4] (in vivo) of 0. The AR entry in experiment [5] (in vivo) is recorded as “−”. Besides, in the experiment on tobacco epidermal strips, the Stomata came to 0 and the “effect on stomatal aperture” value is given as “did not affect the size of the stomatal aperture”. For the same compound, in experiment [6] (in vivo), the PR was 0 and the “effect on primary root growth” value is “modest inhibitors of primary root elongation”.
